According to patent publication EP4722203A1, “3,4-DIHYDROPHTHALAZIN-1(2H)-ONE DERIVATIVE, AND PREPARATION METHOD THEREFOR AND USE THEREOF” (Academy of Military Medical Sciences, priority 2023, dated 2024):

Legend:
Type in all cases: cell-based
RPMI-8226 cells = assay: Antiproliferative activity, CCK-8 assay; settings: Homo sapiens, 144 hours incubation, CCK-8, absorbance at 450 nm
[1] = test system: NCI-H929-pomalidomide-R cells; assay: Antiproliferative activity against resistant cells, CCK-8 assay; settings: Homo sapiens, 144 hours incubation
Description: (§1) In this example, lenalidomide-resistant human multiple myeloma cells, including NCI-H929 (NCI-H929-Lenalidomide-R) and RPMI-8226 (RPMI-8226-Lenalidomide-R), and pomalidomide-resistant human multiple myeloma cells, including NCI-H929 (NCI-H929-pomalidomide-R) and RPMI-8226 (RPMI-8226-pomalidomide-R), were selected as cell models to determine the inhibitory activity of compound I-8 of the present invention against the proliferation of the resistant cells.
(§2) • ① I-8 was dissolved in DMSO to prepare a 10 mM stock solution. Compounds used within three months should be stored at room temperature in a desiccator; others could be stored at -20°C for long-term storage. • ② The I-8 stock solution and the reference compounds lenalidomide and pomalidomide were all diluted with DMSO. Their initial concentrations were 10 µM. In the experiments of lenalidomide-resistant human multiple myeloma cells (NCI-H929 (NCI-H929-Lenalidomide-R) and RPMI-8226 (RPMI-8226-Lenalidomide-R) and pomalidomide-resistant human multiple myeloma cells (NCI-H929 (NCI-H929-pomalidomide-R) and RPMI-8226 (RPMI-8226-pomalidomide-R), 3-fold serial dilution with 11 concentration points was performed, with the lowest concentration of […]. The resulting solutions were shaken on a shaker for 5 minutes.
(§3) • ① The NCI-H929-Lenalidomide-R, RPMI-8226-Lenalidomide-R, NCI-H929-pomalidomide-R, and RPMI-8226-pomalidomide-R cells in logarithmic growth phase were inoculated in a 96-well plate, 20,000 to 30,000 cells per well, and the plate was pre-cultured for 24 hours in an incubator (at 37°C and 5% CO2). • ® The culture medium in the plate was replaced, and the compounds and the positive controls with corresponding concentrations were added to the plated at a volume of 50 µL. • ③ The plate was incubated for 144 hours in an incubator, then 15 µL of CCK-8 solution was added to each well, and the plate was incubated in the incubator for another 1-4 hours. • ④ The absorbance at 450 nm was measured using a microplate reader.
(§4) • ① Calculating % Inhibition: [formula] • ② Calculating IC50 value of compound and plotting dose-response curve: The IC50 value was calculated by fitting the % Inhibition and the logarithm of compound concentration to a nonlinear regression (dose response-variable slope) by using GraphPad 6.0. Y = Bottom + (Top−Bottom)/(1+10^(∧)((LogIC50−X)*HillSlope)) [formula] X: log of inhibitor concentration; Y: % Inhibition.
(§5) After calculating % Inhibition, a dose-response curve was plotted with the logarithm of the test compound concentration as the x-axis and the average cell viability as the y-axis, and the IC50 value was obtained by fitting.

[2] = test system: RPMI-8226-Lenalidomide-R cells; assay: as above; settings: Homo sapiens, 144 hours incubation
Description: as §1, §2, §3, §4, §5

[3] = test system: NCI-H929-Lenalidomide-R cells; assay: as above; settings: Homo sapiens, 144 hours incubation
Description: as §1, §2, §3, §4, §5

Compound	IC50 (RPMI-8226 cells) [µM]	IC50 [1] [µM]	IC50 [2] [µM]	IC50 [3] [µM]
CN1Cc2c(NCc3ccc(CN4CCN(c5ccc(C#N)c(F)c5)CC4)cc3)cccc2C(=O)N1C1CCC(=O)NC1=O (centres unmarked) [I-8]	0.308	0.095	0.246	0.055
Nc1cccc2c1C(=O)N(C1CCC(=O)NC1=O)C2=O (centres unmarked) [Pomalidomide, reference compound]	0.729	> 100	> 100	> 100
